In data set [1] the target is T1, PI 3-kinase alpha (Homo sapiens, UniProt P42336). Description: Kinase Glo Luminescent Kinase Assay (Kglo), assay A. The following applies: read-out: Assay A PI3Kα IC50. In kind it is biochemical. Background: In Kinase-Glo more light means more ATP remaining.
Target sequence in this assay (P42336 whole entry): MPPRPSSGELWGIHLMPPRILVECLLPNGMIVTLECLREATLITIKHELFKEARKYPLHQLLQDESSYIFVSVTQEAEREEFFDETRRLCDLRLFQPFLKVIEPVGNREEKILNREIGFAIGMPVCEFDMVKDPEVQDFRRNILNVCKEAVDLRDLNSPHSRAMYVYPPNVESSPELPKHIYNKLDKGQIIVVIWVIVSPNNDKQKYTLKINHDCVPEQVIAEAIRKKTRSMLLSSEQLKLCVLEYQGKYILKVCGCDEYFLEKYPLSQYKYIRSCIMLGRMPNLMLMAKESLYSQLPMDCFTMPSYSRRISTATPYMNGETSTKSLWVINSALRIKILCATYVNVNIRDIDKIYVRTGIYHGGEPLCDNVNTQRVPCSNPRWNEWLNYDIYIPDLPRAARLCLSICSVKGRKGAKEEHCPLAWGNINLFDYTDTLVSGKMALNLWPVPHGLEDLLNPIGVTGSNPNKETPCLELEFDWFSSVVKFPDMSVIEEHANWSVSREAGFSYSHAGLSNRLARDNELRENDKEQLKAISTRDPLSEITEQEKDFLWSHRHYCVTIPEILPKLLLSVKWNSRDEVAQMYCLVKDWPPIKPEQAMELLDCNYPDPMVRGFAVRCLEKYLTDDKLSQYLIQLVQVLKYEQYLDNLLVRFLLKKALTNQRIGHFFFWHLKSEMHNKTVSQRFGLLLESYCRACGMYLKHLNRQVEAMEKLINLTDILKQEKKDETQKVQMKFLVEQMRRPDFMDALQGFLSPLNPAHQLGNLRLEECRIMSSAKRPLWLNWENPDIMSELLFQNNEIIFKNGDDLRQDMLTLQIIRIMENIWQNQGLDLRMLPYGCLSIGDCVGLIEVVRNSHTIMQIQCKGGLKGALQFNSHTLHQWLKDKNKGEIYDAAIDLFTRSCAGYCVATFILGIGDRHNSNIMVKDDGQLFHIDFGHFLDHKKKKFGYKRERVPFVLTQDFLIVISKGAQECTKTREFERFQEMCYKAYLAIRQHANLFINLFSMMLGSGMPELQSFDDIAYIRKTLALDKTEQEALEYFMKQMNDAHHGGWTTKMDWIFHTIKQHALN
In data set [2] the target is T2, PI 3-kinase beta (Homo sapiens, UniProt P42338). Description: Kinase Glo Luminescent Kinase Assay (Kglo), assay B. The following applies: read-out: Assay B PI3Kβ IC50. Type of data set: biochemical.
Data set [3] concerns the target Vps34 (Homo sapiens, UniProt Q8NEB9). Description: Kinase Glo Luminescent Kinase Assay (Kglo), assay C. In kind it is biochemical. The following applies: read-out: Assay C VPS34 IC50.
The target in data set [4] is PI 4-kinase beta (Homo sapiens, UniProt Q9UBF8). Description: Kinase Glo Luminescent Kinase Assay (Kglo), assay D. Type of data set: biochemical. The following applies: read-out: Assay D PI4Kβ IC50.
Experimental: Kinase Glo Luminescent Kinase Assay (Kglo) for Pb 3-Kinase Alpha (A), Pb 3-Kinase Beta (B), Vps34 (C), Pb 4-Kinase Beta (D)
The Kinase Glo Luminescent Kinase Assay (Promega, Madison/Wis., USA) is a homogeneous HTS method of measuring kinase activity by quantifying the amount of ATP remaining in solution following a kinase reaction.
L-α-phosphatidylinositol (PI), provided as 10 mg/ml solution in methanol, was transferred into a glass tube and dried under a nitrogen beam. It was then resuspended in 3% OctylGlucoside (1-0-n-octyl-beta-D-glucopyranoside) by vortexing and stored at 4° C. 5 μL of a mix of PI/OctylGlucoside with the PI 3-kinase alpha and PI 3-kinase beta subtypes, or Vps34 or PI 4-kinase beta were added. Kinase reactions were started by the addition of 5 μl of an ATP-mix containing in a final volume 10 μL 10 mM TRIS-HCl pH 7.5, 3 mM MgCl2, 50 mM NaCl, 0.05% CHAPS, 1 mM DTT and 1 μM ATP at room temperature.
All fits were performed with the program XLfit4 (ID Business Solutions, Guildford, UK).
Data set [5] deals with T3, PI 3-kinase gamma (Homo sapiens, UniProt P48736). Description: TR-FRET Adapta assay, assay E. The following applies: read-out: Assay E PI3Kγ IC50. Type of data set: biochemical. Background: TR-FRET usually uses a lanthanide donor and a delayed reading to cut background.
Data set [6] addresses mTOR (Homo sapiens, UniProt P42345). Description: Lanthascreen kinase binding assay, assay G. The following applies: read-out: Assay G mTOR IC50.
Experimental: Lanthascreen™ Kinase Binding Assay for mTOR (G)
Binding of an inhibitor to the kinase competes for binding with the tracer, resulting in a loss of FRET.
50 nL of compound dilutions were dispensed onto white 384-well small volume polystyrene plate.
Data set [7] deals with T3, PI 3-kinase gamma. Description: Cellular U937 AKT assay K1 (MSD). Type of data set: cell-based. The following applies: U937 cells, K1 format; read-out: Assay K1 PI3Kγ IC50.
Data set [8] has as its target T4, PI 3-kinase delta (Homo sapiens, UniProt O00329). Description: TR-FRET Adapta assay, assay F. The following applies: read-out: Assay F PI3Kδ IC50.
Target sequence in this assay (O00329 whole entry): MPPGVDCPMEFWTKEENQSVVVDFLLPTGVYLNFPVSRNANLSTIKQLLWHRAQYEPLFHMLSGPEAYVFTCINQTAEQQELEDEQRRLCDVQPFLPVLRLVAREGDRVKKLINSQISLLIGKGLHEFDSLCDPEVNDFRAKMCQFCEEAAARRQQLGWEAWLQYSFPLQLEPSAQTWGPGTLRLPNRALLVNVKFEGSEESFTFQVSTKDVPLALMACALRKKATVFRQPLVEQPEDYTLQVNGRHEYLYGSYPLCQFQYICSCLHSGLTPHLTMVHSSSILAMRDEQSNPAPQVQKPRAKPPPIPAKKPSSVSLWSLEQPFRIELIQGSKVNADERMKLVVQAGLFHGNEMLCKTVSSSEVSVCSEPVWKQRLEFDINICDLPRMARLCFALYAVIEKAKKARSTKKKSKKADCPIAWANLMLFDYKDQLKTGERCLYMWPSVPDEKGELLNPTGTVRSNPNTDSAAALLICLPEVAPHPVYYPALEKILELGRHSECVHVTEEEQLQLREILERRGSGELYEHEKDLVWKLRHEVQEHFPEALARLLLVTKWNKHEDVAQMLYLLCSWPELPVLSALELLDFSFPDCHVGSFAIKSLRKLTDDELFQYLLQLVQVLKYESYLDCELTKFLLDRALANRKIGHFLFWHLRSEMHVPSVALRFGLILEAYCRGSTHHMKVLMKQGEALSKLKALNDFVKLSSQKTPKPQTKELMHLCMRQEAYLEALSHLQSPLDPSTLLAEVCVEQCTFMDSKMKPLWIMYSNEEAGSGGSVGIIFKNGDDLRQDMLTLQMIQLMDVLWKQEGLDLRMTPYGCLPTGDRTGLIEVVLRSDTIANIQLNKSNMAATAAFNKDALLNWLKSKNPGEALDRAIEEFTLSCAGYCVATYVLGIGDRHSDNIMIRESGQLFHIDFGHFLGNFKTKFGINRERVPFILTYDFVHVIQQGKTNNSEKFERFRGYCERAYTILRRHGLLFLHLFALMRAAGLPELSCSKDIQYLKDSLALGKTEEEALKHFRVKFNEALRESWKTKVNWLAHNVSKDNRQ
Target sequence in this assay (P27986 461-568 partner): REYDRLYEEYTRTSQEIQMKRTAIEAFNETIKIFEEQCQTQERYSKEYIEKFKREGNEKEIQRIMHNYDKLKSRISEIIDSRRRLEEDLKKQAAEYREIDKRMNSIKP
Data set [9] in a line: Microsomal clearance assay (M). The following applies: intrinsic clearance in rat liver microsomes.
Experimental: The experiments were performed in 96-well glass plates at 37° C. on an automated Tecan EVO platform. Test compounds at a concentration of 10 mM in pure DMSO were diluted 1:1000 in water to 10 μM. […] Reactions were initiated by the addition of 150 μL of a cofactor solution containing 2 mM NADPH.
Data set [10] deals with T1, PI 3-kinase alpha. Description: Cellular assay H1, p-Akt (S473) in Rat-1 cells, Surefire format. Type of data set: cell-based. The following applies: non-asterisked data: version H1 (Surefire format), Rat-1 cells; read-out: Assay H PI3Kα IC50.
The target in data set [11] is T2, PI 3-kinase beta. Description: Cellular assay I1, p-Akt (S473) in Rat-1 cells, Surefire format. Type of data set: cell-based. The following applies: non-asterisked data: version I1 (Surefire format), Rat-1 cells; read-out: Assay I PI3Kβ IC50.
Text: Cellular Assays for PI 3-Kinase Alpha (H1), Beta (I1) and Delta (J1): Surefire Format
AlphaScreen (Amplified Luminescent Proximity Homogeneous Assay, ALPHA, Perkin Elmer) is a non-radioactive bead-based proximity assay technology to study biomolecular interactions in a homogenous microtiter plate format. The brand name SureFire denotes AlphaScreen assays that are adapted to quantify the phosphorylation of endogenous cellular proteins in cell lysates, by using matched antibody pairs, which consist of an anti-phospho-kinase and an anti-kinase antibody. The assay allows characterization of kinase signaling in cells as well as measurement of kinase inhibitor effects.
Using Rat-1 cells stably expressing myr-HA-tagged versions of the human PI3Kdelta, PI3Kalpha, or PI3Kbeta p110 catalytic subunit isoforms, the assay was developed as a two-plate protocol in a 384-well format.
For compound testing, the cells were seeded at a density of 4000 (Rat-1_PI3Kdelta), 7500 (Rat-1_PI3Kalpha), or 6200 (Rat-1_PI3Kbeta) cells in 20 μl complete growth medium into cell culture treated 384-well plates and were grown at 37° C./5% CO2/90% humidity for 24 h. Shortly before compound transfer, the complete medium was removed, 30 μl assay buffer (DMEM high glucose, 1×MEM NEAA, 10 mM HEPES, 2 mM L-glutamine, 0.1% (w/v) BSA) was added and 10 μl of the compound predilutions were transferred to the cells.
The target of data set [12] is T4, PI 3-kinase delta. Description: Cellular assay J1, p-Akt (S473) in Rat-1 cells, Surefire format. Type of data set: cell-based. The following applies: non-asterisked data: version J1 (Surefire format), Rat-1 cells; read-out: Assay J PI3Kδ IC50.

Vps34, sequence (Q8NEB9 whole entry, species assumed): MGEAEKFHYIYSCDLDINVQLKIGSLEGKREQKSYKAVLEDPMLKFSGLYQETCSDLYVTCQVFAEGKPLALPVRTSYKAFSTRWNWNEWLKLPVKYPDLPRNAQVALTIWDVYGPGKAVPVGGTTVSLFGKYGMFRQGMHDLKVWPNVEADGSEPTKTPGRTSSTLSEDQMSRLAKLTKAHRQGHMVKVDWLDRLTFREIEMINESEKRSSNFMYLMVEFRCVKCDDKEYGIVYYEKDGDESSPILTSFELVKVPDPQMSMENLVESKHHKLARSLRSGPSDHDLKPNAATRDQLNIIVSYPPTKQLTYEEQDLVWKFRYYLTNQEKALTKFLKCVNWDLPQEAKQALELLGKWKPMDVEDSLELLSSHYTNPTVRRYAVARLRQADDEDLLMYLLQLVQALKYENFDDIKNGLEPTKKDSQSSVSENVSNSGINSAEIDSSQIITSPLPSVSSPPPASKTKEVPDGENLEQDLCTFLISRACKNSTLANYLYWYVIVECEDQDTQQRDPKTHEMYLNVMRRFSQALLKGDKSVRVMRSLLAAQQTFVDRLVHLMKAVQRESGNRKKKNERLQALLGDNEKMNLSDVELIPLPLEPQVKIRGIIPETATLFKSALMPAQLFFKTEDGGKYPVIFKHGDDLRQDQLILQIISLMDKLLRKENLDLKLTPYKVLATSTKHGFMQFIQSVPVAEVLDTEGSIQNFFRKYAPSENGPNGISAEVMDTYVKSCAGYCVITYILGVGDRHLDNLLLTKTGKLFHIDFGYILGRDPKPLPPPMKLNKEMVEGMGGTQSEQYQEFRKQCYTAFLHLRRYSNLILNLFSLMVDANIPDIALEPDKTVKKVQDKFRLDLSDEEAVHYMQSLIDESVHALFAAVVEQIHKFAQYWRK
T3 sequence (P48736 whole entry): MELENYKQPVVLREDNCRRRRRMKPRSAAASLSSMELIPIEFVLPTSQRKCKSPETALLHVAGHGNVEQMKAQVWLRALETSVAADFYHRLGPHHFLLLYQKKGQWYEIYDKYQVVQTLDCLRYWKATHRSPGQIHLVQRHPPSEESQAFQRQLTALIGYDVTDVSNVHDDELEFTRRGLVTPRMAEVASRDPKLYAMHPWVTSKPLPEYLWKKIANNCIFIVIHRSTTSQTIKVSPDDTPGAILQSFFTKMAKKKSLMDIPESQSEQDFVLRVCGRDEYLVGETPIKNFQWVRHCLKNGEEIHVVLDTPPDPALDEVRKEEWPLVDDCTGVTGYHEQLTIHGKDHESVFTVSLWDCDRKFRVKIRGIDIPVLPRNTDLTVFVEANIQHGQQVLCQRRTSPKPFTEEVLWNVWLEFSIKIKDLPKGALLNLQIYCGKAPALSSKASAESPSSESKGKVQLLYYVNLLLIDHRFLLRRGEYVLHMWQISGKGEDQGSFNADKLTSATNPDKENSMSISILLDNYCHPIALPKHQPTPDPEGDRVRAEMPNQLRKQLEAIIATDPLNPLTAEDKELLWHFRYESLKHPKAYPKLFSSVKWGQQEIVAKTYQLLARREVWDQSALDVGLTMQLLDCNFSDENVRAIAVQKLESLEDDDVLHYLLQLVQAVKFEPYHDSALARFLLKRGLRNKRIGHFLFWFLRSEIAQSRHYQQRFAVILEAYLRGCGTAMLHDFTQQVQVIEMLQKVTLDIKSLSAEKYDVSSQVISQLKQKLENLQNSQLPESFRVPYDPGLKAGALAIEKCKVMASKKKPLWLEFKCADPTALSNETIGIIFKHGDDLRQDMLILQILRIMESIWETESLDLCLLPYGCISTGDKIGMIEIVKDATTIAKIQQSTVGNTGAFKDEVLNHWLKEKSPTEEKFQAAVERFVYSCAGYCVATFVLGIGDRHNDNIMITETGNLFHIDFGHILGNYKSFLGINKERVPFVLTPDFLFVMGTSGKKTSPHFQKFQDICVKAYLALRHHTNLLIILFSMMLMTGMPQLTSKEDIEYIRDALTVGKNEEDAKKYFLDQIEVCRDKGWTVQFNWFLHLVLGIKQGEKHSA
PI 4-kinase beta, sequence (Q9UBF8 whole entry): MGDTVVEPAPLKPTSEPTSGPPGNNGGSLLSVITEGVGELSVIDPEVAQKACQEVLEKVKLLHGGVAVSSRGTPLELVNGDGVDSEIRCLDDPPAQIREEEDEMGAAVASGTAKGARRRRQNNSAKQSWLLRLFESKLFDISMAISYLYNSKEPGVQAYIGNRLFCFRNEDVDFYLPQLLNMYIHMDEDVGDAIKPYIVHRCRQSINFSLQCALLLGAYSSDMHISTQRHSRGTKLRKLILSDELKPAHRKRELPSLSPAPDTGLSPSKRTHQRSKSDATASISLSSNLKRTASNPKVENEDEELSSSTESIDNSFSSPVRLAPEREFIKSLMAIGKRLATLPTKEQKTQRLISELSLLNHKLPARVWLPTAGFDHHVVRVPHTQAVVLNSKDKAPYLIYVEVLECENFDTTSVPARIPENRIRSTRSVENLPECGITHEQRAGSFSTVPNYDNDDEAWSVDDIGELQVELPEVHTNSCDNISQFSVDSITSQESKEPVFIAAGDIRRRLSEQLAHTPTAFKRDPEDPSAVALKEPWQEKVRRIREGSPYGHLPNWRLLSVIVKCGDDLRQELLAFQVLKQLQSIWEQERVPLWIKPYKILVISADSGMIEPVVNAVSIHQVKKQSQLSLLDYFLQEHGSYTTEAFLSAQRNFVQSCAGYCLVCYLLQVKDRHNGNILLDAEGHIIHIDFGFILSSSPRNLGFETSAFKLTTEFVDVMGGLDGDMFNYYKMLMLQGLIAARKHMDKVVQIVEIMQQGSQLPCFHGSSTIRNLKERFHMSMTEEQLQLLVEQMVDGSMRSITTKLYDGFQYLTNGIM

In general, IC50 refers to the concentration that gives 50% inhibition. Turning to `Cc1nc(-c2nc(-c3cc(S(=O)(=O)NCC(C)(C)O)ccc3C)cnc2N)c(C)s1` [Example 40, 3-(5-Amino-6-(2,5-dimethylthiazol-4-yl)pyrazin-2-yl)-N-(2-hydroxy-2-methylpropyl)-4-methylbenzenesulfonamide], the IC50 is 760 nM in data set [1]; 1400 nM in data set [2]; > 10000 nM in data set [3]; > 10000 nM in [4]; 36 nM in data set [5]; 3800 nM in data set [6]. Further, the IC50 was 40 nM in data set [7] and 840 nM in [8]. Further, in [9], the “Assay M RLM CI(int)” value is 92 µL/min/mg.

`Cc1ccc(S(=O)(=O)NCCC(C)(C)O)cc1-c1cnc(N)c(-c2cc(C3CC3)no2)n1` [Example 78, 3-(5-Amino-6-(3-cyclopropylisoxazol-5-yl)pyrazin-2-yl)-N-(3-hydroxy-3-methylbutyl)-4-methylbenzenesulfonamide]: the IC50 in data set [1] is 240 nM; in data set [2], 2200 nM; in [3] it was > 9550 nM; in data set [4], 1550 nM; in data set [5], 13 nM; in data set [6], 2350 nM. The IC50 turned out to be 66 nM in data set [7] and 180 nM in [8]. Further, the “Assay M RLM CI(int)” value in data set [9] came to 152 µL/min/mg.

For the compound `Cc1noc(-c2nc(-c3cc(S(=O)(=O)NC[C@H]4C[C@@H](O)C4)ccc3C)cnc2N)n1` [Example 96, 3-(5-Amino-6-(3-methyl-1,2,4-oxadiazol-5-yl)pyrazin-2-yl)-N-(((1s,3s)-3-hydroxycyclobutyl)methyl)-4-methylbenzenesulfonamide], the IC50 in data set [1] is 550 nM; in data set [2], 3350 nM; in data set [4] it was > 9550 nM; in data set [5], 92 nM; in data set [6], 8800 nM; in data set [7], 276 nM. For the same compound, in [8], the IC50 is 550 nM. For the same compound, the “Assay M RLM CI(int)” value in [9] came out at 62 µL/min/mg.

As to `Cc1ccc(S(=O)(=O)NC[C@H]2C[C@@H](O)C2)cc1-c1cnc(N)c(-c2cc(C3CC3)no2)n1` [Example 100, 3-(5-Amino-6-(3-cyclopropylisoxazol-5-yl)pyrazin-2-yl)-N-(((1s,3s)-3-hydroxycyclobutyl)methyl)-4-methylbenzenesulfonamide], the IC50 in data set [1] was 500 nM; in data set [2], 5300 nM; in data set [3], 7200 nM; in data set [4], 5750 nM; in [5] it was 3 nM; in data set [6], > 9550 nM. Moreover, the values for the IC50 in data set [7] and in data set [8] were 74 nM and 680 nM, respectively. In addition, the “Assay M RLM CI(int)” value in data set [9] came to 95 µL/min/mg.

For the compound `Cc1cc(-c2nc(-c3cc(S(=O)(=O)NCCC(C)(C)O)ccc3C)cnc2N)n(C)n1` [Example 119.36], the IC50 in data set [1] is 220 nM; in [2], 4410 nM; in data set [3] it was > 9100 nM; in [4], > 9100 nM; in [5], 34 nM; in data set [6], > 9100 nM. Further, the results for the IC50 in data set [7] and in data set [8] were 1280 nM and 170 nM, respectively. In data set [9], the “Assay M RLM CI(int)” value turned out to be 48 µL/min/mg.

Regarding `Cc1ccc(S(=O)(=O)N2CCC(F)(F)C2)cc1-c1cnc(N)c(-n2cncn2)n1` [Example 127.3], the IC50 in data set [1] is 380 nM; in data set [2], 3200 nM; in [3], > 10000 nM; in data set [4], 3400 nM; in data set [5], 160 nM; in data set [6], > 10000 nM. Besides, the IC50 is 371 nM in data set [7] and > 10000 nM in data set [8].

Consider `Cc1ccc(S(=O)(=O)NC[C@@H](C)O)cc1-c1cnc(N)c(-n2cncn2)n1` [Example 127.13], for which the IC50 in data set [1] is 280 nM; in data set [2], 530 nM; in data set [3], > 10000 nM; in data set [4] it was 3800 nM; in data set [5], 26 nM; in [6] it was 6100 nM. Besides, the IC50 in [7] is 210 nM; in data set [8] it was 1100 nM.

With `Cc1ccc(S(=O)(=O)NCC2CCCCO2)cc1-c1cnc(N)c(-n2cncn2)n1` (stereo not shown) [Example 127.17], the IC50 was 890 nM in [1]; 1200 nM in [2]; > 10000 nM in data set [3]; 7400 nM in [4]; 38 nM in data set [5]; > 10000 nM in data set [6]. Moreover, the IC50 was 392 nM in [7] and 1100 nM in [8].

For the compound `Cc1ccc(S(=O)(=O)N[C@H]2CCOC2)cc1-c1cnc(N)c(-n2cncn2)n1` [Example 127.21], the IC50 was 360 nM in [1]; 1900 nM in [2]; > 10000 nM in data set [3]; > 10000 nM in data set [4]; 98 nM in data set [5]; 3000 nM in data set [6]. Further, the IC50 in [7] came out at 320 nM; in data set [8], 1200 nM.

On to `Cc1ccc(S(=O)(=O)NC[C@@](C)(O)C(F)(F)F)cc1-c1cnc(N)c(-n2cncn2)n1` [Example 127.22], for which the IC50 was 270 nM in data set [1]; 970 nM in data set [2]; > 10000 nM in data set [3]; 8300 nM in data set [4]; 40 nM in data set [5]; 3900 nM in data set [6]. Also, the IC50 in data set [7] is 156 nM; in [8] it was 500 nM.

On to `Cc1ccc(S(=O)(=O)NC[C@](C)(O)C(F)(F)F)cc1-c1cnc(N)c(-n2cncn2)n1` [Example 127.23], for which the IC50 is 180 nM in data set [1]; 580 nM in [2]; > 10000 nM in [3]; 2900 nM in data set [4]; 23 nM in [5]; 82 nM in [7]. Also, the IC50 in data set [8] amounted to 360 nM.

As to `Cc1ccc(S(=O)(=O)NCCC(C)(O)C(F)(F)F)cc1-c1cnc(N)c(-n2cncn2)n1` (stereo not shown) [Example 127.24], the IC50 is 200 nM in data set [1]; 790 nM in data set [2]; > 10000 nM in [3]; 1800 nM in [4]; 27 nM in data set [5]; 4700 nM in data set [6]. Also, the values for the IC50 in data set [7] and in data set [8] were 168 nM and 320 nM, respectively.

`Cc1ccc(S(=O)(=O)NCCF)cc1-c1cnc(N)c(-n2cncn2)n1` [Example 127.28]: the IC50 in [1] was 450 nM; in [2], 5100 nM; in data set [3] it was > 10000 nM; in [4] it was 8400 nM; in data set [5], 160 nM; in [6] it was > 10000 nM. For the same compound, the IC50 turned out to be 290 nM in data set [7] and 3500 nM in [8].

In the case of `Cc1ccc(S(=O)(=O)NCCCF)cc1-c1cnc(N)c(-n2cncn2)n1` [Example 127.29], the IC50 in data set [1] was 240 nM; in data set [2] it was 1800 nM; in data set [3], > 10000 nM; in data set [4] it was 3900 nM; in data set [5], 124 nM; in data set [6], > 10000 nM. Besides, the IC50 in data set [7] stood at 131 nM; in data set [8], 640 nM.

Regarding `Cc1ccc(S(=O)(=O)NCC(C)(C)N2CCOCC2)cc1-c1cnc(N)c(-n2cncn2)n1` [Example 127.32], the IC50 is 1800 nM in [1]; 4600 nM in data set [2]; > 10000 nM in data set [3]; > 10000 nM in data set [4]; 140 nM in [5]; 6700 nM in data set [6]. The IC50 turned out to be 1880 nM in data set [7] and 1200 nM in data set [8].

Take `Cc1cc(-c2nc(-c3cc(S(=O)(=O)NCC4CCCOC4)ccc3C)cnc2N)ccn1` (stereo not shown) [Example 129.14, 3-(5-amino-6-(2-methylpyridin-4-yl)pyrazin-2-yl)-4-methyl-N-((tetrahydro-2H-pyran-3-yl)methyl)benzenesulfonamide]: the IC50 is 210 nM in data set [1]; 4500 nM in data set [2]; > 9100 nM in data set [3]; > 9100 nM in data set [4]; 59 nM in data set [5]; 5700 nM in data set [6]. For the same compound, the IC50 in data set [10] came to 2960 nM; in [11], 5150 nM; in data set [12], 2960 nM; in data set [8], 480 nM. The “Assay M RLM CI(int)” value in [9] turned out to be 347 µL/min/mg.

For `CCc1noc(-c2nc(-c3cc(S(=O)(=O)NC4CNC4)ccc3C)cnc2N)n1` [Example 137, 3-(5-Amino-6-(3-ethyl-1,2,4-oxadiazol-5-yl)pyrazin-2-yl)-N-(azetidin-3-yl)-4-methylbenzenesulfonamide], the IC50 was 1740 nM in data set [1]; > 9100 nM in data set [2]; > 9100 nM in [3]; > 9100 nM in [4]; 58 nM in data set [5]; 950 nM in [6]. For the same compound, the IC50 is > 10000 nM in data set [10], > 10000 nM in data set [11], 8580 nM in data set [12] and 330 nM in data set [8]. The “Assay M RLM CI(int)” value in [9] came to 28 µL/min/mg.

The values are drawn from patent publication US10004732B2 (Novartis AG, priority 2014, dated 2018).
